Here are results for nine compounds from patent USRE42274E1, “Cyclic peptide CXCR4 antagonists” (Eli Lilly and Company, priority 2007, dated 2011).

By IC50 is commonly meant the midpoint of a concentration-inhibition curve. Lower therefore signals inhibition by little substance. One may read the Ki as the equilibrium dissociation constant of an inhibitor or competing ligand from its target. In general, bioavailability refers to dose-corrected exposure relative to a reference, in per cent. High values mean good availability, low ones poor availability.

Numbered stars: 1 amine (or outer) side, 2 acyl side, 3 side chain; on linkers, the order of the positions; unused ones are H or OH. Bridge positions count the residues as written; N and C are the ends. Square brackets hold non-standard residues; d marks the D form. Peptide text beside a SMILES is read from it. * marks the point of attachment. Lys(iPr-d6) = deuterated Lys(iPr), [2H]C([2H])([2H])C(NCCCC[C@H](N[*:1])C(=O)[*:2])C([2H])([2H])[2H]; 2Nal = N[C@@H](Cc1ccc2ccccc2c1)C(=O)O; Lys(iPr) = CC(C)NCCCC[C@H](N)C(=O)O; Lys(Me2) = CN(C)CCCC[C@H](N)C(=O)O; Dap = NC[C@H](N)C(=O)O; Bz = O=C(c1ccccc1)*

Series [1] has as its target T1, CXCR4 (Homo sapiens, UniProt P61073). Briefly: Chemotaxis assay, SDF-1α-induced migration of U937 cells. It is filed as cell-based. More on the design: endogenous in cells. The note with it: SDF-1α 10 ng/mL. The source says: CXCR4/SDF-1 interaction regulates migration (chemotaxis) of cells bearing CXCR4 on their surface. To determine the antagonist and cellular activities of a test compound, a chemotaxis assay using human histiocytic lymphoma U937 cells (ATCC CRL 1593) that express endogenous CXCR4 are employed. Briefly, U937 cells, grown in DMEM medium (Gibco, Grand Island, N.Y.) containing 10% FBS, 1% MEM sodium pyruvate (Gibco), 1% MEM nonessential amino acids (Gibco), and 1% GlutaMAX 1 (Gibco), are harvested and washed once with chemotaxis assay buffer prepared with 1×RPMI medium (Gibco) containing 10 mM HEPES, pH 7.5, and 0.3% BSA. After washing, cells are resuspended in assay buffer at a concentration of 5×10^6 cells/mL. The assay is performed in a 96-well ChemoTx plate (NeuroProbe) according to the manufacturer's directions. […] The plate is then incubated for 60 min at 37° C., and the migrated cells are detected by measuring the absorbance at 492 nm with a Tecan Spectrafluor Plus Microplate Reader (Salzburg, Austria). CXCR4 antagonists inhibit cell migration, reducing the absorbance reading. The inhibitory potency (IC50) of a test compound in this assay is calculated using GraphPad Prism software, based on the dose-dependent decrease of absorbance at 492 nm.

Series [2] deals with T1, CXCR4. In words: Human CXCR4/125I-SDF-1α binding inhibition assay. More on the design: human leukemia CCRF-CEM cells (ATCC CCL 119) expressing endogenous CXCR4 are employed; endogenous in cells; host or cells: CCRF-CEM (ATCC CCL 119), whole cells. The following applies: for Ki: CCRF-CEM cells expressing endogenous CXCR4, Ki calculated from IC50. The protocol: “Ki” values are calculated using IC50 values determined in the CXCR4/^125I-SDF-1α binding assay described below by employing equation 7.22 of Enzymes, A Practical Introduction to Structure, Mechanism, and Data Analysis, Robert A. Copeland, Wiley-VCH, New York, 1996, page 207.
Human CXCR4/^125I-SDF-1α Binding Inhibition Assay
SDF-1 binding to CXCR4 is the first step in activating the CXCR4 intracellular signalling pathway. To determine if a compound can block the interaction of SDF-1 and CXCR4, human leukemia CCRF-CEM cells (ATCC CCL 119) expressing endogenous CXCR4 are employed in an ^125I-labeled SDF-1α binding assay. The assay is performed in a 96-well U-bottom, non-treated polystyrene plate (Corning Incorporated, Costar, No. 3632). The binding assay buffer is prepared with RPMI 1640 medium (Gibco, Grand Island, N.Y.) containing 10 mM HEPES, pH 7.5, and 0.2% BSA. Briefly, 200 μL reaction mixtures containing 300 pM SDF ligand (60 pM ^125I-SDF-1α (Perkin Elmer) and 240 pM cold SDF-1α (R&D Systems), different concentrations of the test compound in assay buffer, 100,000 human CCRF-CEM cells, and 0.5 mg SPA beads (Wheatgerm agglutinin beads; Amersham) are incubated at room temperature for 2 hr. Plates are then counted in a 1450 Microbeta Liquid Scintillation and Luminescence Counter (Wallac) in SPA mode. CXCR4 antagonists decrease the bound radioactivity in this assay in a dose-dependent manner. The inhibitory potency (K1 or IC50) of a test compound is calculated using GraphPad Prism software, based on the dose-dependent decrease of bound radioactivity.

A further series in a line: Bioavailability in rats. The following applies: rat, in vivo, sc, subcutaneous. The protocol:
Pharmacologic properties such as compound bioavailability, in vivo metabolic stability, and pharmacokinetic/pharmacodynamic properties can be determined by methods well known in the art of drug development. […] For example, in mice, the half-life (T½) of the compound of Example 58 is about 3 hours. With respect to pharmacodynamic properties, preferred compounds induce prolonged neutrophil and white blood cell mobilization in mice. For example, the compound of Example 25 induces a significant increase of neutrophils and white blood cells in peripheral blood for at least 6 hours after single dose subcutaneous administration at 5 mg/kg in mice.

Series [3] concerns neutrophils and white blood cells in peripheral blood. In words: Compound-induced white blood cell and neutrophil mobilization in C57BL/6 mice. It is filed as in vivo, mouse. The following applies: 5 mg/kg. From the text: Compound-Induced White Blood Cell and Neutrophil Mobilization in C57BL/6 Mice
Stem cells within the bone marrow actively maintain continuous production of all mature blood cell lineages throughout life. Bone marrow is the primary site for white blood cell (WBC)/neutrophil production and release into the circulation. The CXCR4/SDF-1 axis appears to be critical for the retention and release of WBCs, neutrophils, and hematopoietic progenitor cells in the bone marrow, and interruption of CXCR4/SDF-1 interaction in bone marrow leads to an increase of these cells in peripheral blood. A short-term mouse WBC/neutrophil mobilization model can be used to determine the in vivo target-modulating activity of a test compound. Briefly, pathogen-free 5-6 week old female C57BL/6 mice (Taconic) are housed for at least one week prior to assay. Animals are allowed continuous access to sterilized rodent chow and acidified water. Groups of 5 mice are injected subcutaneously with test compounds in saline, or with saline control, and then sacrificed by CO2 asphyxiation and cervical dislocation at various time points post compound administration. Peripheral blood is collected by cardiac puncture using EDTA-coated syringes and tubes. […] Total WBCs, neutrophils, and lymphocytes in the peripheral blood are recorded. […]

Series [4] concerns human non-Hodgkin's lymphoma Namalwa cells. In words: Anti-tumor activity in a SCID/Namalwa xenograft model. It is filed as in vivo, mouse. The following applies: 1 mg/kg BID, subcutaneous. From the text: Anti-Tumor Activity in a SCID/Namalwa Xenograft Model
SDF-1/CXCR4 interaction appears to play an important role in multiple stages of tumorigenesis, including tumor growth, invasion, angiogenesis, and metastasis. To evaluate in vivo anti-tumor activity of a test compound, a tumor xenograft model using NOD/SCID mice (Jackson Laboratories) and human non-Hodgkin's lymphoma Namalwa cells (ATCC CRL 1432) are employed. Briefly, 200,000 Namalwa cells mixed with matrigel (1:1) are implanted subcutaneously into the rear flank of the animals. The implanted tumor cells grow as solid tumors, the dimensions of which can be continuously monitored and measured using a caliper. To determine the in vivo efficacy of a test compound in this model, one can treat animals (10/group) with different doses of test compounds dissolved in saline or PBS, beginning 48 hours post tumor cell implantation. Compounds are dosed subcutaneously, and tumor volume and body weight are determined every 2 or 3 days. Studies generally last 3-4 weeks, depending on tumor growth. The anti-tumor growth activity of a test compound is determined by the percent reduction in tumor volume in treatment groups compared to tumor volume in control groups treated with vehicle alone.

T1 sequence (P61073 whole entry): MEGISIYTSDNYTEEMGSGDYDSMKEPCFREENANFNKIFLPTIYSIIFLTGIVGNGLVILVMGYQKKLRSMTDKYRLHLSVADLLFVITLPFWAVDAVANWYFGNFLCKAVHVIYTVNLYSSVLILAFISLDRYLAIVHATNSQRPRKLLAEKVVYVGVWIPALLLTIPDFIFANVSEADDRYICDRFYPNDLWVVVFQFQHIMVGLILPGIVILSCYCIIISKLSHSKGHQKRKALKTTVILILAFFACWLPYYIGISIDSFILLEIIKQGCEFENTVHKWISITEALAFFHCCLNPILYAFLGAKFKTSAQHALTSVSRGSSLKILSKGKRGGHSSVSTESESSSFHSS

For the compound `CN(C)CCCC[C@@H]1NC(=O)[C@H](Cc2ccc(O)cc2)NC(=O)[C@@H](NC(=O)c2ccccc2)CC(=O)NC[C@@H](C(=O)N[C@@H](CCCNC(=N)N)C(N)=O)NC(=O)CNC(=O)[C@H](Cc2ccc3ccccc3c2)NC(=O)[C@@H](CCCNC(=N)N)NC1=O` [Example 19, Bz-cyclo[Asp-Tyr-Lys(Me2)-DArg-2Nal-Gly-Dap]-Arg-NH2] (Bz-DY[Lys(Me2)][dR][2Nal]G[Dap]R-NH2; lactam 1-7), the IC50 against CXCR4 [1] is 2.05 nM.
“cyclo[Phe-Tyr-Lys(iPr-d6)-DArg-2Nal-Gly-DGlu]-Lys(iPr-d6)-NH2 (FY[Lys(iPr-d6)][dR][2Nal]G[dE][Lys(iPr-d6)]-NH2; lactam N-7) [Example 89]”: in the series with CXCR4 [2] (deuterium-labeled peptide vs non-labeled counterpart), the “target receptor affinity compared to the non-labeled counterpart” value is “identical target receptor affinity”.
For `CC(C)NCCCC[C@@H]1NC(=O)[C@H](Cc2ccc(O)cc2)NC(=O)CNC(=O)CC[C@H](C(=O)N[C@@H](CCCCNC(C)C)C(=O)NCC(=O)N[C@@H](Cc2ccc3ccccc3c2)C(N)=O)NC(=O)CNC(=O)[C@H](Cc2ccc3ccccc3c2)NC(=O)[C@@H](CCCNC(=N)N)NC1=O` [Example 75, cyclo[Gly-Tyr-Lys(iPr)-DArg-2Nal-Gly-DGlu]-Lys (iPr)-Gly-2Nal-NH2] (GY[Lys(iPr)][dR][2Nal]G[dE][Lys(iPr)]G[2Nal]-NH2; lactam N-7), the Ki on CXCR4 [2] is 0.096 nM.
Turning to `CCNC(=O)[C@H](CCCNC(=N)N)NC(=O)[C@H]1CCC(=O)NCC(=O)N[C@@H](Cc2ccc(O)cc2)C(=O)N[C@@H](CCCCNC(C)C)C(=O)N[C@H](CCCNC(=N)N)C(=O)N[C@@H](Cc2ccc3ccccc3c2)C(=O)NCC(=O)N1` [Example 44, cyclo[Gly-Tyr-Lys(iPr)-DArg-2Nal-Gly-DGlu]-Arg-NHEt] (GY[Lys(iPr)][dR][2Nal]G[dE]R-NHEt; lactam N-7), in “Bioavailability in rats”, the bioavailability was about 100%.
In the case of “cyclo[Gly-Tyr-Lys(iPr)-DArg-2Nal-Gly-DGlu]-Arg-NH2 (GY[Lys(iPr)][dR][2Nal]G[dE]R-NH2; lactam N-7) [Example 25]”, the “duration of significant increase of neutrophils and white blood cells in peripheral blood” value in series [3] (single dose subcutaneous, mice) was “at least 6 hours”.
`CC(=O)N[C@H]1CNC(=O)CC[C@@H](C(=O)N[C@@H](CCCNC(=N)N)C(N)=O)NC(=O)CNC(=O)[C@H](Cc2ccc3ccccc3c2)NC(=O)[C@@H](CCCNC(=N)N)NC(=O)[C@H](CCCNC(=N)N)NC(=O)[C@H](Cc2ccc(O)cc2)NC1=O` [Example 1, Ac-cyclo[Dap-Tyr-Arg-DArg-2Nal-Gly-Glu]-Arg-NH2] (Ac-[Dap]YR[dR][2Nal]GER-NH2; lactam 1-7): the Ki on CXCR4 [2] is 3.45 nM.
In the case of “cyclo[Gly-Tyr-Lys(iPr)-DArg-2Nal-Gly-DGlu]-NH2 (GY[Lys(iPr)][dR][2Nal]G[dE]-NH2; lactam N-7; SMILES CC(C)NCCCC[C@@H]1NC(=O)[C@H](Cc2ccc(O)cc2)NC(=O)CNC(=O)CC[C@H](C(N)=O)NC(=O)CNC(=O)[C@H](Cc2ccc3ccccc3c2)NC(=O)[C@@H](CCCNC(=N)N)NC1=O) [Example 26]”, in series [4], the tumor growth inhibition result was “significantly inhibit tumor growth”.
Regarding “cyclo[Gly-Tyr-Lys(iPr)-DArg-2Nal-Gly-Glu]-Arg-NH2 (GY[Lys(iPr)][dR][2Nal]GER-NH2; lactam N-7) [Example 39]”, the “average neutrophil ratio (neutrophil increase in treatment group vs. saline control group)” value in series [3] (3 hours after compound administration, subcutaneous) came to 4.6.
On CXCR4 [1], `CC(C)NCCCC[C@@H]1NC(=O)[C@H](Cc2ccc(O)cc2)NC(=O)[C@@H](C)NC(=O)CC[C@H](C(N)=O)NC(=O)CNC(=O)[C@H](Cc2ccc3ccccc3c2)NC(=O)[C@@H](CCCNC(=N)N)NC1=O` [Example 50, cyclo[DAla-Tyr-Lys(iPr)-DArg-2Nal-Gly-DGlu]-NH2] ([dA]Y[Lys(iPr)][dR][2Nal]G[dE]-NH2; lactam N-7) gave a half-maximal inhibitory concentration (IC50) of 0.171 nM. Besides, the Ki at CXCR4 [2] is 0.285 nM.
